“And” between values parts separate entries of the source, which are not always exact repeats. Equal values may be shown once. Residues, ends and D or L forms follow the SMILES beside them. No end group written: not given here. Bounds are passed on as bounds.

The results in this text go back to patent US11479587B2, “Cationic intrinsically disordered antimicrobial peptides” (priority 2016, dated 2022).

Data set [1] concerns methicillin-resistant S. aureus strain (ATCC 43300). It counts as cell-based, Staphylococcus aureus. The settings on record: ATCC 43300, 18 h. Here is the method:
Furthermore, sensitivity of a methicillin-resistant S. aureus strain (ATCC 43300) was investigated for palmitoylated CIDAMPs in a microtiter plate screening model, with incubation in Mueller-Hinton medium at 37° C. for 18 h using resazurin as a marker for cell viability.
A sample of each culture was then diluted 40-fold in fresh broth and incubated at 37° C. for 1.5-3 h. […] All the plates were covered and incubated at 37° C. for 18 h.
Inhibition of bacterial growth was determined using resazurin as a marker for cell viability. Resazurin was added to each well, at 0.001% final concentration, and plates incubated at 37° C. for 2 h. Fluorescence intensity was measured, using F (top read), ex 560/10 nm, em 590/10 nm, using a Tecan M1000 Pro monochromator plate reader.

For a further data set, the system named is P. aeruginosa ATCC 10145. Nature of the data set: CFU-assay, P. aeruginosa-cidal activity. Format: cell-based, Pseudomonas aeruginosa.
In another data set the test system is S. aureus ATCC 6538. The data set is described as follows: CFU-assay, S. aureus-cidal activity. Format: cell-based, Staphylococcus aureus. As for the experimental part: Thus, within the present invention, the antimicrobial activity is generally measured in nutrient deficient 10 mM sodium phosphate buffer pH 5.5, containing 0.25% glucose, using the CFU-assay according to Steinberg and Lehrer, 1997 (supra), unless otherwise indicated. The CFU-assay allows determination of the minimal bactericidal concentration (MBC, e.g., MBC90 and MBC100; i.e. the concentration of compound required to achieve a specified reduction in bacterial cell number (microbial death or killing)).
Various peptides corresponding to repeat domains of hornerin (HR 1-11: HRNR 2606-2628; HR 1-17: HRNR 2656-2684 and HR 1-18: HRNR 2656-2677) were tested for P. aeruginosa ATCC 10145-cidal activity in 10 mM Na-phosphate buffer pH 5.5, containing 0.25% glucose by counting the numbers of colonies of surviving bacteria at serial, twofold dilutions from 300 μg/ml down to 19 ng/ml of each peptide (CFU-assay; Steinberg and Lehrer, 1997, Methods Mol. Biol. 78, 169-186).
Staphylococcus aureus is a major skin pathogen, which causes skin infections, in particular in atopic dermatitis. The sensitivity of S. aureus ATCC 6538 towards several CIDAMPs was assessed using the CFU-assay as above (see Example 1). HR 1-18, which lacks S. aureus.-bactericidal activity, is converted in a S. aureus-cidal peptide, when all His are replaced by Arg (HR 1-18 4H-4R; see Table 13 and FIG. 9). […] HR 1-18 4H-4R is rich in Ser and Arg and contains a single Leu residue. When this single Leu was replaced by Gly in S. aureus-cidal HR 1-18 4H-4R (forming HR 1-18 4H-4R/L-G), S. aureus-cidal activity was abolished at both pH 7.0 and pH 5.5 (see Table 13 and FIG. 9).

Data set [2] in a line: Cytotoxicity (resazurin) assay. As for the experimental part:
For the cytotoxicity (resazurin) assay, HEK293 cells were counted manually in a Neubauer haemocytometer and plated at a density of 4000 cells/well into each well of the 384-well plates containing the 25×(2 μl) concentrated compounds. The medium used was Dulbecco's modified eagle medium (DMEM) supplemented with 10% foetal bovine serum (FBS). Cells were incubated together with the compounds for 20 h at 37° C., 5% CO2. To measure cytotoxicity, 5 μl (equals 100 μM final) resazurin was added to each well after incubation, and incubated for further 3 h at 37° C. with 5% CO2.
After final incubation fluorescence intensity was measured as F ex 560/10 nm, em 590/10 nm (F560/590) using a Tecan M1000 Pro monochromator plate reader. […] The concentration dependent percentage cytotoxicity was fitted to a dose response function (using Pipeline Pilot) and CC50 values determined.

The nature of the next data set: Hemolysis assay. It counts as cell-based. Particulars: human, washed erythrocytes from EDTA-blood, pH 7.4. As for the experimental part:
For the hemolysis assays EDTA-blood was centrifuged at 800×g for 10 min, and the plasma and buffy coat were removed. The erythrocytes were washed three times and resuspended in 5% PBS, pH 7.4. The cells were then incubated with end-over-end rotation for 1 h at 37° C. in the presence of different concentrations of peptides (0, 3, 10, 30, 60 μm). 0.1% Triton X-100 (Sigma-Aldrich) served as positive control. The samples were then centrifuged at 800×g for 10 min.
The absorbance of hemoglobin release was measured at 540 nm and is expressed as % of Triton X-100-induced hemolysis. These values of triplicates were plotted with Graph Pad Prism 4 as a dose response curve and the CC50 was determined.

The subject of the next data set is C. albicans ATCC 928. The settings on record: standard conditions at pH 7.4; activity at concentration <32 pg/ml.
The subject of the next data set is C. neoformans. Particulars: standard conditions at pH 7.4; activity at concentration <32 pg/ml.
Data set [3] has as its system Candida albicans ATCC 24433. The data set is described as follows: CFU-assay, Candida albicans-cidal activity. Format: cell-based. Here is the method: Thus, within the present invention, the antimicrobial activity is generally measured in nutrient deficient 10 mM sodium phosphate buffer pH 5.5, containing 0.25% glucose, using the CFU-assay according to Steinberg and Lehrer, 1997 (supra), unless otherwise indicated. The CFU-assay allows determination of the minimal bactericidal concentration (MBC, e.g., MBC90 and MBC100; i.e. the concentration of compound required to achieve a specified reduction in bacterial cell number (microbial death or killing)). […]
HR 1-17 affects C. albicans ATCC 24433 with highest activity at pH 5.5 in the absence of TSB in the medium (see Tables 12, 24). […] Furthermore, the substitution of any of the Arg residues by Gly leads to a dramatic reduction or loss of candidacidal activity (see Table 24).

Consider `N=C(N)NCCC[C@H](NC(=O)[C@H](CCCNC(=N)N)NC(=O)[C@H](CS)NC(=O)[C@H](CCCNC(=N)N)NC(=O)[C@H](Cc1c[nH]cn1)NC(=O)[C@H](CO)NC(=O)[C@H](CCCNC(=N)N)NC(=O)[C@H](CS)NC(=O)[C@H](CS)NC(=O)[C@H](CCCNC(=N)N)NC(=O)[C@H](Cc1c[nH]cn1)NC(=O)[C@H](Cc1c[nH]cn1)NC(=O)[C@@H](N)CO)C(=O)O` [LCE3B5668] (H-SHHRCCRSHRCRR-OH; N-terminus and C-terminus assumed), for which the “MIC, S. aureus ATCC 43300” value in data set [1] is ≥32 µg/mL.

For GRRGSGLGRSSSRGGRGSGSGR [HR 1-18 4H-4R], the MBC90 in the data set with P. aeruginosa ATCC 10145 (pH 5.0, 0.25% glucose) was 0.038 µg/mL; with P. aeruginosa ATCC 10145 (pH 6.0, 0.25% glucose) it was 2.35 µg/mL; with P. aeruginosa ATCC 10145 (pH 6.5, 0.25% glucose), 2.35 µg/mL; in the data set with P. aeruginosa ATCC 10145 (pH 7.0, 0.25% glucose) it was 2.38 µg/mL and 2.35 µg/mL; against S. aureus ATCC 6538 (pH 5.5, 0.25% glucose) it was 150 µg/mL; against S. aureus ATCC 6538 (pH 7.0, 0.25% glucose), 9.35 µg/mL and 9.375 µg/mL. Also, the MBC100 with P. aeruginosa ATCC 10145 (pH 5.0, 0.25% glucose) was 0.15 µg/mL; with P. aeruginosa ATCC 10145 (pH 6.0, 0.25% glucose), 4.7 µg/mL; against P. aeruginosa ATCC 10145 (pH 6.5, 0.25% glucose) it was 4.7 µg/mL; in the data set with P. aeruginosa ATCC 10145 (pH 7.0, 0.25% glucose), 9.38 µg/mL; against S. aureus ATCC 6538 (pH 5.5, 0.25% glucose) it was >300 µg/mL; in the data set with S. aureus ATCC 6538 (pH 7.0, 0.25% glucose), >300 µg/mL. In addition, the “P. aeruginosa MBC90” value in the data set with P. aeruginosa ATCC 10145 (pH 5.5) came out at 0.018 µM. Also, in the data set with P. aeruginosa ATCC 10145 (pH 5.5), the “P. aeruginosa MBC100” value came out at 0.142 µM. The “S. aureus MBC90” value with S. aureus ATCC 6538 (pH 7.0) turned out to be 4.46 µM. Moreover, the “S. aureus MBC100” value with S. aureus ATCC 6538 (pH 7.0) was >143 µM. Besides, in the data set on S. aureus ATCC 6538 (pH 7.0, 0.25% glucose), the max.killing result is “max.killing: 98.8%”. Also, the CC50 in data set [2] was > 15.2 µM. Also, in the data set “Hemolysis assay”, the 50% haemolytic concentration (HC50) at 1 h is > 150 µM.

As to `CCCCCCCCCCCCCCCC(=O)N[C@@H](Cc1c[nH]cn1)C(=O)NCC(=O)N[C@@H](CO)C(=O)N[C@@H](CCCNC(=N)N)C(=O)N[C@@H](CO)C(=O)NCC(=O)N[C@@H](CCC(N)=O)C(=O)N[C@@H](CO)C(=O)N[C@@H](CO)C(=O)N[C@@H](CCCNC(=N)N)C(=O)NCC(=O)N[C@@H](CCC(=O)O)C(=O)N[C@@H](CCCNC(=N)N)C(=O)N[C@@H](Cc1c[nH]cn1)C(=O)NCC(=O)N[C@@H](CO)C(=O)N[C@@H](CO)C(=O)N[C@@H](CO)C(=O)NCC(=O)N[C@@H](CO)C(=O)N[C@@H](CO)C(=O)N[C@@H](CO)C(=O)N[C@@H](Cc1c[nH]cn1)C(=O)O` [Pal-HR 1-11] (HELM PEPTIDE1{[CCCCCCCCCCCCCCCC(=O)[*:2]].H.G.S.R.S.G.Q.S.S.R.G.E.R.H.G.S.S.S.G.S.S.S.H}$$$$V2.0), the “MIC, S. aureus ATCC 43300” value in data set [1] was >32 µg/mL. Besides, the CC50 in data set [2] was > 32 µg/mL.

With “GRRGGGGGRGGGRGGRGGGGGR (Modified peptide derived from human hornerin (HR 1-18 GR))”, the MBC90 against P. aeruginosa ATCC 10145 (pH 5.0, 0.25% glucose) was <0.019 µg/mL; in the data set with P. aeruginosa ATCC 10145 (pH 5.5, 0.25% glucose) it was <0.006 µM; in the data set on S. aureus ATCC 6538 (pH 5.5, 0.25% glucose), >300 µg/mL. Moreover, the MBC100 against P. aeruginosa ATCC 10145 (pH 5.0, 0.25% glucose) is 0.075 µg/mL; against P. aeruginosa ATCC 10145 (pH 5.5, 0.25% glucose), 0.075 μg/ml and 0.04 μM; in the data set with S. aureus ATCC 6538 (pH 5.5, 0.25% glucose) it was >300 µg/mL. The “Antifungal activity, C. albcans ATCC90028” value with C. albicans ATCC 928 was “I (I-inactive)”. Besides, the “Antifungal activity, C. neoformans ATCC 208821” value in the data set on C. neoformans was “I (I-inactive)”.

Consider “GRHGSGLGHSSSHGQHGSGSGRSSSGGPY (Modified peptide derived from human hornerin (HR 1-17 R2681G))”, for which, in the data set on P. aeruginosa ATCC 10145 (pH 5.0, 0.25% glucose), the MBC90 came to 0.0375 µg/mL and the MBC100 is 0.15 to 0.3 µg/mL. In data set [3] (pH 5.5, 1% TSB), the MBC90 came out at 300 µg/mL and the MBC100 was >300 µg/mL.

As to “HAHSGHGQSTQRGSRTAGRRGSGH (Peptide derived from human filaggrin-2 (FLG-2 2082-2105)) [FLG-22082-2105]”, in the data set with P. aeruginosa ATCC 10145 (pH 5.5, 0.25% glucose), the MBC90 was <0.075 µg/mL and the MBC100 turned out to be 0.038 µg/mL. Also, the “reduction of candidacidal activity at pH 7.2 versus pH 5.5 (fold)” value in data set [3] (pH 7.2 vs pH 5.5) is ~50 fold.
